Experimental data reported in PubChem BioAssay AID330 (DTP/NCI, 2004).
Values joined by “and” are separate entries in the source; they are usually repeats but may differ in a detail not shown here. Equal values may be shown once. Toxic doses and inconclusive results are not listed.

Test system: P388 leukemia ip, CD2F1 mice, survival T/C
Assay: NCI In Vivo Anticancer Drug Screen. Data for tumor model P388 Leukemia (intraperitoneal) in CD2F1 (CDF1) mice
Settings: endpoint: median survival time, higher = longer survival
In short: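 Mice carrying the transplanted tumor received test compound or vehicle. Survival was recorded in each group, and the value is the treated-group measurement divided by that of the vehicle-treated control group.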

[1] = dose: 50.0 mg/kg/injection, schedule: Q04DX002 (ip), vehicle: saline with Tween-80
[2] = dose: 100.0 mg/kg/injection, schedule: Q04DX002 (ip), vehicle: saline with Tween-80
[3] = dose: 50.0 mg/kg/injection, schedule: Q01DX005 (ip), vehicle: saline with Tween-80
[4] = dose: 100.0 mg/kg/injection, schedule: Q01DX005 (ip), vehicle: saline with Tween-80
[5] = dose: 200.0 mg/kg/injection, schedule: Q01DX005 (ip), vehicle: saline with Tween-80
[6] = dose: 50.0 mg/kg/injection, schedule: Q01DX009 (ip), vehicle: saline with Tween-80
[7] = dose: 100.0 mg/kg/injection, schedule: Q01DX009 (ip), vehicle: saline with Tween-80
[8] = dose: 12.5 mg/kg/injection, schedule: Q01DX009 (ip), vehicle: Klucel (hydroxypropylcellulose) (HPC)
[9] = dose: 25.0 mg/kg/injection, schedule: Q01DX009 (ip), vehicle: Klucel (hydroxypropylcellulose) (HPC)
[10] = dose: 60.0 mg/kg/injection, schedule: Q01DX005 (ip), vehicle: saline with Tween-80
[11] = dose: 120.0 mg/kg/injection, schedule: Q01DX005 (ip), vehicle: saline with Tween-80
[12] = dose: 240.0 mg/kg/injection, schedule: Q01DX005 (ip), vehicle: saline with Tween-80
[13] = dose: 25.0 mg/kg/injection, schedule: Q01DX005 (ip), vehicle: saline with Tween-80
[14] = dose: 50.0 mg/kg/injection, schedule: Q01DX009 (ip), vehicle: Klucel (hydroxypropylcellulose) (HPC)
[15] = dose: 100.0 mg/kg/injection, schedule: Q01DX009 (ip), vehicle: Klucel (hydroxypropylcellulose) (HPC)
[16] = dose: 200.0 mg/kg/injection, schedule: Q01DX009 (ip), vehicle: Klucel (hydroxypropylcellulose) (HPC)
[17] = dose: 50.0 mg/kg/injection, schedule: Q01DX005 (ip), vehicle: Klucel (hydroxypropylcellulose) (HPC)
[18] = dose: 100.0 mg/kg/injection, schedule: Q01DX005 (ip), vehicle: Klucel (hydroxypropylcellulose) (HPC)
[19] = dose: 200.0 mg/kg/injection, schedule: Q01DX005 (ip), vehicle: Klucel (hydroxypropylcellulose) (HPC)

SMILES: CC12CCC3C(CCC4=CC(OC5OCC(O)C(O)C5O)CCC43C=O)C1(O)CCC2C1=CC(=O)OC1 (stereo not drawn)
- T/C (dose: 1.0 mg/kg/injection, schedule: Q01DX009 (ip), vehicle: Klucel (hydroxypropylcellulose) (HPC)): 99 % of control
- T/C (dose: 2.0 mg/kg/injection, schedule: Q01DX009 (ip), vehicle: Klucel (hydroxypropylcellulose) (HPC)): 105 % of control
- T/C (dose: 4.0 mg/kg/injection, schedule: Q01DX009 (ip), vehicle: Klucel (hydroxypropylcellulose) (HPC)): 97 % of control
- T/C (dose: 8.0 mg/kg/injection, schedule: Q01DX009 (ip), vehicle: Klucel (hydroxypropylcellulose) (HPC)): 108 % of control

SMILES: CN=C(N)N/N=C(/C)c1cc2ccccc2c2ccccc12
- T/C (dose: 25.0 mg/kg/injection, schedule: Q04DX002 (ip), vehicle: saline with Tween-80): 95 % of control
- T/C [1]: 101 % of control
- T/C [2]: 102 % of control

SMILES: O=C1c2ccccc2-c2c1c1ccccc1c(=O)n2-c1ccccc1
- T/C [3]: 102 % of control
- T/C [4]: 107 % of control
- T/C [5]: 100 % of control

SMILES: CN1CCC(O)(c2ccccc2)C(Br)C1 (stereo not drawn)
- T/C (dose: 30.0 mg/kg/injection, schedule: Q01DX005 (ip), vehicle: saline): 100 % of control and 106 % of control
- T/C (dose: 60.0 mg/kg/injection, schedule: Q01DX005 (ip), vehicle: saline): 100 % of control and 105 % of control and 110 % of control
- T/C (dose: 120.0 mg/kg/injection, schedule: Q01DX005 (ip), vehicle: saline): 100 % of control and 116 % of control

SMILES: NCc1ccc(Cc2ccc(CN)cc2)cc1
- T/C [6]: 100 % of control
- T/C [7]: 100 % of control

SMILES: COC(=O)C1=[N+]([O-])[N+]([O-])=C(C(=O)OC)C1=O
- T/C [8]: 95 % of control
- T/C [9]: 94 % of control

SMILES: COc1ccc(-c2nnc(N)o2)cc1OC
- T/C [10]: 107 % of control
- T/C [11]: 98 % of control
- T/C [12]: 103 % of control

SMILES: CC1NCCc2[nH]cnc21 (stereo not drawn)
- T/C (dose: 50.0 mg/kg/injection, schedule: Q01DX009 (ip), vehicle: saline): 96 % of control
- T/C (dose: 100.0 mg/kg/injection, schedule: Q01DX009 (ip), vehicle: saline): 100 % of control
- T/C (dose: 200.0 mg/kg/injection, schedule: Q01DX009 (ip), vehicle: saline): 105 % of control

SMILES: CC1=C(O)CC(/C(C)=C/Cl)OC1=O (stereo not drawn)
- T/C (dose: 100.0 mg/kg/injection, schedule: Q04DX002 (ip), vehicle: Klucel (hydroxypropylcellulose) (HPC)): 103 % of control
- T/C (dose: 200.0 mg/kg/injection, schedule: Q04DX002 (ip), vehicle: Klucel (hydroxypropylcellulose) (HPC)): 107 % of control
- T/C (dose: 400.0 mg/kg/injection, schedule: Q04DX002 (ip), vehicle: Klucel (hydroxypropylcellulose) (HPC)): 102 % of control

SMILES: O=C(/C=C/c1c[nH]c2ccccc12)c1ccccc1[N+](=O)[O-]
- T/C [10]: 94 % of control
- T/C [11]: 90 % of control

SMILES: O=C(O)c1cc2ccccc2c(N=Nc2cc(C(F)(F)F)ccc2Cl)c1O
- T/C (dose: 12.5 mg/kg/injection, schedule: Q01DX005 (ip), vehicle: saline with Tween-80): 102 % of control
- T/C [13]: 100 % of control
- T/C [3]: 98 % of control and 100 % of control
- T/C [5]: 86 % of control

SMILES: C/C=C\C#C/C=C1/C=CC(=O)O1
- T/C [8]: 105 % of control
- T/C [9]: 105 % of control
- T/C [14]: 108 % of control
- T/C [15]: 108 % of control

SMILES: O=C(c1ccccc1)c1cccc(C(=O)c2ccccc2)c1
- T/C [13]: 99 % of control
- T/C [3]: 104 % of control
- T/C [4]: 95 % of control
- T/C [5]: 105 % of control

SMILES: COC(SC)c1cc(-c2c(Cl)cccc2Cl)no1 (stereo not drawn)
- T/C [10]: 93 % of control
- T/C [11]: 103 % of control
- T/C [12]: 107 % of control

SMILES: Cc1cc(C)nc(NS(=O)(=O)c2ccc(NC(=O)Nc3cc(F)ccc3F)cc2)n1
- T/C [14]: 96 % of control
- T/C [15]: 95 % of control
- T/C [16]: 91 % of control

SMILES: O=c1c2ccccc2oc2cccc(NCCCN3CCN(CCCNc4cccc5oc6ccccc6c(=O)c45)CC3)c12
- T/C (dose: 7.0 mg/kg/injection, schedule: Q01DX005 (ip), vehicle: saline with Tween-80): 90 % of control

SMILES: COC(=O)C1=C(C(=O)OC)C23C(=O)c4ccc(OC)c(OC)c4C1(OC)N2CCc1cc2c(cc13)OCO2 (stereo not drawn)
- T/C [1]: 96 % of control
- T/C [2]: 96 % of control
- T/C (dose: 200.0 mg/kg/injection, schedule: Q04DX002 (ip), vehicle: saline with Tween-80): 100 % of control

SMILES: CN(C)c1ccc2ccc(=O)[nH]c2c1
- T/C [3]: 95 % of control
- T/C [4]: 108 % of control
- T/C [5]: 99 % of control

SMILES: O=C(NC(Cc1ccc(I)cc1)C(=O)O)c1ccc(Br)cc1 (stereo not drawn)
- T/C (dose: 12.5 mg/kg/injection, schedule: Q01DX005 (ip), vehicle: sodium bicarbonate): 104 % of control
- T/C (dose: 25.0 mg/kg/injection, schedule: Q01DX005 (ip), vehicle: sodium bicarbonate): 100 % of control
- T/C [17]: 98 % of control
- T/C (dose: 50.0 mg/kg/injection, schedule: Q01DX005 (ip), vehicle: sodium bicarbonate): 94 % of control
- T/C [18]: 98 % of control
- T/C (dose: 100.0 mg/kg/injection, schedule: Q01DX005 (ip), vehicle: sodium bicarbonate): 90 % of control and 94 % of control
- T/C [19]: 101 % of control

SMILES: CCOC(=O)c1ccc(NC)cc1
- T/C [6]: 105 % of control
- T/C [7]: 102 % of control
- T/C (dose: 200.0 mg/kg/injection, schedule: Q01DX009 (ip), vehicle: saline with Tween-80): 118 % of control

SMILES: O=C1C(Cl)=C(N2CC2)C(=O)C(Cl)=C1N1CC1
- T/C (dose: 0.08 mg/kg/injection, schedule: Q01DX009 (ip), vehicle: saline with Tween-80): 105 % of control
- T/C (dose: 0.16 mg/kg/injection, schedule: Q01DX009 (ip), vehicle: saline with Tween-80): 112 % of control
- T/C (dose: 0.31 mg/kg/injection, schedule: Q01DX009 (ip), vehicle: saline with Tween-80): 122 % of control
- T/C (dose: 0.63 mg/kg/injection, schedule: Q01DX009 (ip), vehicle: saline with Tween-80): 124 % of control
- T/C (dose: 2.5 mg/kg/injection, schedule: Q01DX009 (ip), vehicle: saline with Tween-80): 155 % of control
- T/C (dose: 5.0 mg/kg/injection, schedule: Q01DX009 (ip), vehicle: saline with Tween-80): 155 % of control
- T/C (dose: 10.0 mg/kg/injection, schedule: Q01DX009 (ip), vehicle: saline with Tween-80): 155 % of control

SMILES: CCOC(=O)c1cnc(SCc2ccccc2)[nH]c1=O
- T/C (dose: 100.0 mg/kg/injection, schedule: Q04DX003 (ip), vehicle: saline with Tween-80): 100 % of control
- T/C (dose: 200.0 mg/kg/injection, schedule: Q04DX003 (ip), vehicle: saline with Tween-80): 90 % of control
- T/C (dose: 400.0 mg/kg/injection, schedule: Q04DX003 (ip), vehicle: saline with Tween-80): 100 % of control

SMILES: CCOC(=O)c1ccc(C(=O)OCC)nc1
- T/C (dose: 25.0 mg/kg/injection, schedule: Q01DX001 (ip), vehicle: saline): 100 % of control
- T/C (dose: 50.0 mg/kg/injection, schedule: Q01DX001 (ip), vehicle: saline): 100 % of control
- T/C (dose: 100.0 mg/kg/injection, schedule: Q01DX001 (ip), vehicle: saline): 100 % of control

SMILES: O=C(c1ccccc1)c1cc(Cl)ccc1NCC(O)COc1ccc(Cl)cc1 (stereo not drawn)
- T/C [10]: 93 % of control
- T/C [11]: 89 % of control
- T/C [12]: 88 % of control

SMILES: COC(=O)CC(=O)c1ccc(OCCOc2ccc(C(C)(C)CC(C)(C)C)cc2)c([N+](=O)[O-])c1
- T/C (dose: 50.0 mg/kg/injection, schedule: Q04DX003 (ip), vehicle: saline sonified): 100 % of control
- T/C (dose: 100.0 mg/kg/injection, schedule: Q04DX003 (ip), vehicle: saline sonified): 100 % of control
- T/C (dose: 200.0 mg/kg/injection, schedule: Q04DX003 (ip), vehicle: saline sonified): 104 % of control

SMILES: CCOC(=O)c1c[nH]c2ccc3[nH]cnc3c2c1=O
- T/C [17]: 95 % of control
- T/C [18]: 99 % of control
- T/C [19]: 95 % of control

SMILES: Cn1c(=O)c2[nH]c(Cc3ccc4c(c3)OCO4)nc2n(C)c1=O
- T/C (dose: 1.56 mg/kg/injection, schedule: Q01DX009 (ip), vehicle: Klucel (hydroxypropylcellulose) (HPC)): 98 % of control
- T/C (dose: 3.13 mg/kg/injection, schedule: Q01DX009 (ip), vehicle: Klucel (hydroxypropylcellulose) (HPC)): 97 % of control
- T/C (dose: 6.25 mg/kg/injection, schedule: Q01DX009 (ip), vehicle: Klucel (hydroxypropylcellulose) (HPC)): 95 % of control
- T/C [8]: 101 % of control
- T/C [9]: 104 % of control
- T/C [14]: 87 % of control
- T/C [15]: 107 % of control
- T/C [16]: 100 % of control
